Assay results published in US11883450B1, “Extract of Agathis robusta as antifungal agent” (KING FAISAL UNIVERSITY, priority 2023, dated 2024).
≈ marks a conversion by molar mass, not a printed value.

Experiments:
[1] = test system: C. albicans; experiment: In vivo topical fungal infection of burn wounds in Wistar rats; settings: for percentage of fungicidal activity (wound fungal load): FIG. 5
Method: The development of in vivo topical fungal infection was determined according to Zinsou, A. et al., “Development of new dermatological formulations for the treatment of cutaneous candidiasis”, Scientific African (2020):8:e00342, and modified Ray and Wuepper, “Experimental Cutaneous Candidiasis in Rodents: II. Role of the Stratum Corneum Barrier and Serum Complement as a Mediator of a Protective Inflammatory Response”, Archives of Dermatology (1978), Vol. 114(4): 539-43. The experimental protocol was permitted by the Institutional Animal Care and Use Committee of King Faisal University (KFU-REC-2023-JAN-EA000691). All the experiments were executed in harmony with the relevant procedures and regulations of the Ethical Conduct for the Use of Animals in Research at King Faisal University. Wistar rats weighing (220±30 g) were used for the whole experiment. The animals' backs were shaved after anesthesia, and sterilized with 70% ethyl alcohol in water and left to dry. The injury was induced on the shaven back of each rat using a hot copper metal rod. The injury was swabbed with 0.5 mL broth containing […] Colony-Forming Units (CFU) of C. albicans. The essential oil topical preparations were applied once daily, starting from day 3, directly on the infected wound until the wound was completely healed (nearly 20 days). No antibiotic or antifungal preparations were administered to any of the animal groups, and the animals were monitored daily for any wound contamination. The animals' wounds were covered by sterile wound plaster, which is changed every day. […]
The animals' infected wounds (lesions) were monitored according to Masoko, et al., “In vivo antifungal effect of Combretum and Terminalia species extracts on cutaneous wound healing in immunosuppressed rats”, Pharm Biol (2010): 48:6:621-32, and Sullivan, et al., “Assessment of wound bioburden development in a rat acute wound model: Quantitative swab versus tissue biopsy”, Wounds (2004): 16: 115-123, using the following parameters: (1) Presence and type of exudate, erythema, swelling, ulceration, and crust formation: The scoring of the lesions regarding the exudate was measured using the following criteria: 0: No exudate, 1: Exudate just visible, 2: Exudate easily visible, 3: Substantial quantity of exudate, 4: Large quantity of exudate; (2) Wound contraction percentage: The lesion diameters were determined in millimeters (mm) vertically and horizontally. The lesion size percentage was calculated using the below equation: Wound contraction percentage=((Wound area day 0-Wound area day X)/Wound area day 0)×100, where X represents the number of days;
(3) Epithelialization time: The number of days needed for the wound Escher to fade away, leaving no visible wound, was used to determine the epithelialization period. (4) Evaluation of wound fungal load was determined according to Sullivan et al., supra: At the 3rd, 10th, and 15 days, each lesion was gently swabbed by a sterile swab 3 times anticlockwise with mild pressure. […] The plates were incubated for 48 hours at 37° C., and the number of yeasts on each plate was manually counted. […]

[2] = test system: Fungi stains; experiment: Minimum fungicidal concentration (MFC), positive control, strain not stated; format: cell-based
Method: Minimum fungicidal concentration (MFC) was determined according to Zinsou et al., “Development of new dermatological formulations for the treatment of cutaneous candidiasis”, Scientific African (2020), 8:e00342. Different final concentrations (0.1 to 1 mg/mL) of the bark essential oils were dissolved in DEMO and added to liquid Sabouraud dextrose broth. From the above fungal stain suspension, 1 mL was added to each essential oil tube. The tubes were incubated at room temperature for three days. Negative and positive controls were made through the addition of an equivalent amount of DMSO and Ketoconazole, respectively. MFC was calculated through the determination of the lowest concentration of the essential oil, which could inhibit the growth of the fungus. Every concentration was repeated 5 times in three different experiments, and the mean and SD of inhibition zones were calculated for each fungal strain. The MIC was determined as the lowest concentration of essential oil that inhibited fungal growth after 48 h.

With `CC(=O)N1CCN(c2ccc(OCC3COC(Cn4ccnc4)(c4ccc(Cl)cc4Cl)O3)cc2)CC1` (stereo not drawn) [Ketoconazole] as the compound, how does the “reduction of wound exudate related to the non-treatment lesions” value ([1]; AUC of exudate score, FIG. 2B, topical once daily from day 3) read?
The value was 58%.

And the “reduction of epithelization time related to the untreated infected wound” value ([1]; FIG. 4)?
The value was 42%.

And the wound contraction percentage ([1]; by day 21, FIG. 3)?
The wound contraction percentage was 100%.

What about the “percentage of fungicidal activity (wound fungal load)” value ([1]; day 5, related to the untreated-infected wound) of the same compound?
Its value is 45.85%.

What about the “percentage of fungicidal activity (wound fungal load)” value ([1]; day 15, related to the untreated-infected wound) of the same compound?
Its value is 98.58%.

And the MFC [2]?
Its MFC is 0.037 µg/mL (≈ 0.0696 µM).
